Source: patent US7659293B2, “α-Amino-N-hydroxy-acetamide derivatives” (Novartis AG, priority 2001, dated 2010)

Test system: BN472 rat mammary carcinoma
Test: Spontaneous metastases model, BN472 rat mammary tumors transplanted orthotopically
Assay type: in vivo
Details: 4 weeks, vehicle control about 230
Method: Tumor fragments of ca. 25 mm^3 are transplanted under the mammary fat pad of female Brown-Norwegian (BN) rats. A compound of formula I is suspended in 1% carboxymethyl cellulose (CMC) in sterile water. The formulations are administered orally at doses of either 30 mg/kg once per day or 15 mg/kg twice per day. Animals in the tumor-bearing control group and the non-tumor-bearing control group (healthy rats) receive vehicle only. Treatment starts after randomization and continues for 4 weeks. Lung metastases are determined after four weeks of treatment by counting the number of lesions visible on the surface of the lungs after fixation in Bouin's fixative. In this model the compounds of formula I at a dose of either 30 mg/kg once per day or 15 mg/kg twice per day produce reductions in the incidence and/or extent of metastases in lungs and regional lymph nodes. The reduction in the median number of lung metastases or weight of regional lymph nodes is between approximately 25% and 70%. For Example, for the compound of Example 3 the median number of lung foci is about 105 for both dosages compared to a median number of about 230 lung foci in the vehicle control group. Based on the increase in body weight and general health, the compounds appear to be well tolerated. […]

O=C(CN(Cc1ccc(-n2nccn2)cc1)S(=O)(=O)c1ccc(OCC2CC2)cc1)NO [Example 3, [(4-Cyclopropylmethoxy-benzenesulfonyl)-(4-[1,2,3]triazol-2-yl-benzyl)amino]-N-hydroxy-acetamide]
median number of lung foci (15 mg/kg twice per day orally): about 105
median number of lung foci (30 mg/kg once per day orally): about 105
